Measurements as given in paper PMC6934184, “Selective DNA-PKcs inhibition extends the therapeutic index of localized radiotherapy and chemotherapy” (The Journal of Clinical Investigation, 2019).

Target: DNA-PK (Homo sapiens, UniProt P78527)
Assay: radiation-induced phospho-DNA-PK Ser2056 in MCF7 cells, Western blot
Format: cell-based
Design: endogenous in cells; host or cells: MCF7
Conditions: 1 h pretreatment, 30 min after 10 Gy IR, read-out: IC50, radiation-induced activation of DNA-PK (phospho–DNA-PK Ser2056)
Description: Exponentially growing MCF7 cells were exposed to a range of concentrations of NU5455 and NU7441 (0.03–10 μM) for 1 hour. To assess the ability of NU5455 and NU7441 to inhibit autophosphorylation of DNA-PKcs at Ser2056, cells were treated with 10 Gy irradiation and incubated for 30 minutes. Alternatively, to investigate the effects of NU5455 and NU7441 against PI3K-dependent phosphorylation of AKT at Ser473, cells were treated with 50 ng/mL insulin-like growth factor-1 (IGF-1; Invitrogen) for 30 minutes. Cell lysates were prepared for the detection of p–DNA-PKcs Ser2056 and total DNA-PKcs, or p–AKT Ser473 and total AKT, respectively, using Western blotting. […]
Protein lysates were quantified using the Pierce BCA Protein Assay (ThermoFisher). […]
Membranes were then washed in TBST and incubated with HRP-conjugated goat anti-mouse or anti-rabbit antibodies (P0447 and P0448 respectively, Dako) in 5% (w/v) milk/TBST at room temperature for 1-2 hours. Conjugates were detected using Clarity Western ECL Substrate (BioRad) and chemiluminescence imaged using the Fuji LAS-3000 Luminescent Image Analyzer System (Fujifilm). […]
Alternatively, basal pAKT Ser473 levels were subtracted from all other pAKT bands, and pAKT band intensity calculated relative to total AKT expression and given as a percentage relative to IGF-1 stimulated, DMSO-treated cells. […]

`CN(C(=O)CN1CCOCC1)c1ccc2sc3c(-c4cccc5c(=O)cc(N6CC7CCC(C6)O7)oc45)cccc3c2c1` [NU5455] showed an IC50 of 168 nM.
